Experimental data as given in patent US10370371B2, “Substituted pyrimidine Bmi-1 inhibitors” (PTC Therapeutics, Inc., priority 2013, dated 2019).

These compounds were tested on Bmi-1 protein (assay: Sandwich ELISA Assay (Bmi-1 protein level in HT-1080 cells)).
Assay type: cell-based
Description: Cell Seeding and Compound Treatment (Day 1):
HT-1080 cells were seeded at 8000 cells/well (50 μL) in 96-well tissue culture plates. After the cells became adherent (3-4 hours), 2× diluted stocks of test compounds in 50 μL DMEM containing 1% DMSO (final DMSO concentration was 0.5%) were added and the plates were incubated at 37° C. under 5% CO2 for 40-48 hours.
ELISA Plate First Antibody Preparation (Day 2):
The First Antibody (Millipore Mouse, monoclonal to mouse Bmi-1, clone F6, catalog #05-637) diluted to 2 μg/mL in PBS was added (100 μL) to each well of a Nunc MaxiSorp 96-well ELISA plate. The plate was covered with a plate seal and allowed to stand overnight.
Cell Lysate Preparation (Day 3):
Fresh Lysis buffer (1×) was prepared on the day of the assay as follows: 1 mM EDTA, 150 mM NaCl, 0.5% Triton-X 100, 10 mM NaF, 20 mM B-Glycerophosphate, 1 mM DTT (in PBS, pH 7.2-7.4) and HALT protease inhibitor cocktail (1×) (Pierce #78410).
Lysis Buffer (1×, 40 μL) was added to each well and the plate was shaken for 5-10 minutes on an orbital shaker to allow cell lysis, then diluent (1% BSA in PBS in 0.5% NP40) (100 μL) was added to each well.
A standard curve was prepared at the following Bmi-1 concentrations: 8000, 4000, 2000, 1000, 500, 250, 125 and 0 pg/mL. The Bmi-1 Recombinant Protein Standard (Novus Biologicals PCGF4 Recombinant Protein (P01), catalog # H00000648-P01) used to prepare the standard curve was stored at −80° C. On first thaw, the Recombinant Protein Standard was diluted to 10 μg/μL in Blocking Buffer (1% BSA in PBS; BSA: Fisher Scientific Catalog #1600-100). Aliquots were taken and refrozen at −80° C. The aliquots may be kept at 4° C. and reused after first thaw, but only within 1-2 weeks. The Recombinant Protein Standard contains a GST-fusion tag that appears at approximately 70 Kda on Western Blot.
The prepared ELISA plate was washed 3× with Wash Buffer (0.05% Tween-20 in PBS). The final wash was removed from the plate and the plate was blotted dry. Blocking Buffer (300 μL) (1% BSA in PBS) was added to each well. The plate was covered with a plate seal and incubated at room temperature for 1 hour. The blocked plate was washed 3× with Wash Buffer, then the final wash was removed and the plate was blotted dry. The previously prepared samples and standards were added (100 μL/well) and the plate was covered with a plate seal and incubated at 4° C. overnight.
The prepared ELISA plate was removed from incubation and allowed to stand at room temperature for 30 minutes, then washed and blotted dry. The Second Antibody (Cell Signaling Rabbit anti-Bmi-1, Cat#2830) diluted to 1:600 in Blocking Buffer was added (100 μL) to each well, except as needed for background control wells. The plate was covered with a plate seal and incubated for 1.5 hrs at room temperature.
The ELISA plate was washed and blotted dry as previously described. The Third Antibody (Cell Signaling HRP conjugated anti-rabbit IgG (CellSignaling, Cat#:7074) diluted to 1:300 in Blocking Buffer was added (100 μL) to each well, except as needed for background control wells. The plate was incubated for 1 hr at room temperature.
The plate was washed and blotted dry, then a previously prepared TMB substrate (TMB substrate kit, Pierce catalog #34021) (prepared by mixing kit reagents 1:1) (100 μL) was added per well. The plate was incubated for 20-30 minutes at room temperature in the dark, then Stop Solution (2 M sulfuric acid in water) (50 μL) was added per well. The plates were read at OD450 (experimental) and OD570 (reference).

EC50	SMILES
10 to 100 nM	Cc1nc2c(F)cccc2n1-c1cc(N)nc(Nc2ccc(C(F)(F)F)cc2)n1 [Cpd 35, 6-(4-fluoro-2-methyl-1H-benzimidazol-1-yl)-N^2-[4-(trifluoromethyl)phenyl]pyrimidine-2,4-diamine]
100 to 3000 nM	Cc1nc2ccccc2n1-c1cc(Cl)nc(Nc2ccc(C(F)(F)F)nc2)n1 [Cpd 36, 4-chloro-6-(2-methyl-1H-benzimidazol-1-yl)-N-[6-(trifluoromethyl)pyridin-3-yl]pyrimidin-2-amine]
10 to 100 nM	Cc1nc2ccccc2n1-c1cc(N)nc(Nc2ccc(C(F)(F)F)nc2)n1 [Cpd 37, 6-(2-methyl-1H-benzimidazol-1-yl)-N^2-[6-(trifluoromethyl)pyridin-3-yl]pyrimidine-2,4-diamine]
100 to 3000 nM	Cc1nc2ccc(F)cc2n1-c1cc(Cl)nc(Nc2ccc(C(F)(F)F)nc2)n1 [Cpd 38, 4-chloro-6-(6-fluoro-2-methyl-1H-benzimidazol-1-yl)-N-[6-(trifluoromethyl)pyridin-3-yl]pyrimidin-2-amine]
10 to 100 nM	Cc1nc2cc(F)ccc2n1-c1cc(N)nc(Nc2ccc(C(F)(F)F)nc2)n1 [Cpd 39, 6-(5-fluoro-2-methyl-1H-benzimidazol-1-yl)-N^2-[6-(trifluoromethyl)pyridin-3-yl]pyrimidine-2,4-diamine]
10 to 100 nM	Cc1nc2ccc(F)cc2n1-c1cc(N)nc(Nc2ccc(C(F)(F)F)nc2)n1 [Cpd 40, 6-(6-fluoro-2-methyl-1H-benzimidazol-1-yl)-N^2-[6-(trifluoromethyl)pyridin-3-yl]pyrimidine-2,4-diamine]
10 to 100 nM	Cc1nc2ccc(Br)cc2n1-c1cc(N)nc(Nc2ccc(C(F)(F)F)cc2)n1 [Cpd 41, 6-(6-bromo-2-methyl-1H-benzimidazol-1-yl)-N^2-[4-(trifluoromethyl)phenyl]pyrimidine-2,4-diamine]
10 to 100 nM	Cc1ccc2nc(C)n(-c3cc(N)nc(Nc4ccc(C(F)(F)F)cc4)n3)c2c1 [Cpd 42, 6-(2,6-dimethyl-1H-benzimidazol-1-yl)-N^2-[4-(trifluoromethyl)phenyl]pyrimidine-2,4-diamine]
10 to 100 nM	CCc1nc2cc(F)ccc2n1-c1cc(N)nc(Nc2ccc(C(F)(F)F)nc2)n1 [Cpd 43, 6-(2-ethyl-5-fluoro-1-benzimidazol-1-yl)-N^2-[6-(trifluoromethyl)pyridin-3-yl]pyrimidine-2,4-diamine]
10 to 100 nM	CCc1nc2ccc(F)cc2n1-c1cc(N)nc(Nc2ccc(C(F)(F)F)nc2)n1 [Cpd 44, 6-(2-ethyl-6-fluoro-1H-benzimidazol-1-yl)-N^2-[6-(trifluoromethyl)pyridin-3-yl]pyrimidine-2,4-diamine]
10 to 100 nM	Cc1nc2ccc(Cl)cc2n1-c1cc(N)nc(Nc2ccc(C(F)(F)F)cc2)n1 [Cpd 45, 6-(6-chloro-2-methyl-1H-benzimidazol-1-yl)-N^2-[4-(trifluoromethyl)phenyl]pyrimidine-2,4-diamine]
100 to 3000 nM	Cc1nc2ccc(Cl)cc2n1-c1cc(O)nc(Nc2ccc(C(F)(F)F)cc2)n1 [Cpd 46, 6-(6-chloro-2-methyl-1H-benzimidazol-1-yl)-2-{[4-(trifluoromethyl)phenyl]amino}pyrimidin-4-ol]
100 to 3000 nM	Cc1nc2cc(Cl)ccc2n1-c1cc(N)nc(Nc2ccc(C(F)(F)F)cc2)n1 [Cpd 47, 6-(5-chloro-2-methyl-1H-benzimidazol-1-yl)-N^2-[4-(trifluoromethyl)phenyl]pyrimidine-2,4-diamine]
10 to 100 nM	Cc1nc2ncc(F)cn2c1-c1cc(N)nc(Nc2ccc(C(F)(F)F)cc2)n1 [Cpd 48, 6-(6-fluoro-2-methylimidazo[1,2-a]pyrimidin-3-yl)-N^2-[4-(trifluoromethyl)phenyl]pyrimidine-2,4-diamine]
100 to 3000 nM	Cc1nc2cc(F)cc(F)c2n1-c1cc(N)nc(Nc2ccc(OC(F)F)cc2)n1 [Cpd 49, N^2-[4-(difluoromethoxy)phenyl]-6-(5,7-difluoro-2-methyl-1H-benzimidazol-1-yl)pyrimidine-2,4-diamine]
10 to 100 nM	Nc1cc(-c2c(C(F)(F)F)nc3ccc(F)cn23)nc(Nc2ccc(C(F)(F)F)cc2)n1 [Cpd 50, 6-[6-fluoro-2-(trifluoromethyl)imidazo[1,2-a]pyridin-3-yl]-N^2-[4-(trifluoromethyl)phenyl]pyrimidine-2,4-diamine]
10 to 100 nM	Cc1nc2c(F)cccc2n1-c1cc(N)nc(Nc2ccc(OC(F)F)cc2)n1 [Cpd 51, N^2-[4-(difluoromethoxy)phenyl]-6-(4-fluoro-2-methyl-1H-benzimidazol-1-yl)pyrimidine-2,4-diamine]
100 to 3000 nM	Cc1cc(Nc2nc(N)cc(-n3c(C)nc4c(F)cccc43)n2)ccc1C(F)(F)F [Cpd 52, 6-(4-fluoro-2-methyl-1H-benzimidazol-1-yl)-N^2-[3-methyl-4-(trifluoromethyl)phenyl]pyrimidine-2,4-diamine]
10 to 100 nM	Cc1ccc2nc(C)n(-c3cc(N)nc(Nc4ccc(C(F)(F)F)c(C)c4)n3)c2c1 [Cpd 53, 6-(2,6-dimethyl-1H-benzimidazol-1-yl)-N^2-[3-methyl-4-(trifluoromethyl)phenyl]pyrimidine-2,4-diamine]
1 to 10 nM	Cc1ccc2nc(C)n(-c3cc(N)nc(Nc4ccc(OC(F)F)cc4)n3)c2c1 [Cpd 54, N^2-[4-(difluoromethoxy)phenyl]-6-(2,6-dimethyl-1H-benzimidazol-1-yl)pyrimidine-2,4-diamine]
10 to 100 nM	Nc1cc(-c2c(C(F)(F)F)nc3ccc(F)cn23)nc(Nc2ccc(OC(F)F)cc2)n1 [Cpd 55, N^2-[4-(difluoromethoxy)phenyl]-6-[6-fluoro-2-(trifluoromethyl)imidazo[1,2-a]pyridin-3-yl]pyrimidine-2,4-diamine]
100 to 3000 nM	Cc1nc2ccccc2n1-c1nc(Nc2ccc(C(F)(F)F)cc2)nc(N)c1F [Cpd 56, 5-fluoro-6-(2-methyl-1H-benzimidazol-1-yl)-N^2-[4-(trifluoromethyl)phenyl]pyrimidine-2,4-diamine]
10 to 100 nM	CCc1nc2ccccc2n1-c1nc(Nc2ccc(C(F)(F)F)cc2)nc(N)c1F [Cpd 57, 6-(2-ethyl-1H-benzimidazol-1-yl)-5-fluoro-N^2-[4-(trifluoromethyl)phenyl]pyrimidine-2,4-diamine]
100 to 3000 nM	Cc1nc2ccc(F)cc2n1-c1nc(Nc2ccc(C(F)(F)F)cc2)nc(N)c1F [Cpd 58, 5-fluoro-6-(6-fluoro-2-methyl-1H-benzimidazol-1-yl)-N^2-[4-(trifluoromethyl)phenyl]pyrimidine-2,4-diamine]
100 to 3000 nM	CCc1nc2ccc(F)cc2n1-c1nc(Nc2ccc(C(F)(F)F)cc2)nc(N)c1F [Cpd 59, 6-(2-ethyl-6-fluoro-1H-benzimidazol-1-yl)-5-fluoro-N^2-[4-(trifluoromethyl)phenyl]pyrimidine-2,4-diamine]
10 to 100 nM	Cc1nc2c(F)cc(F)cc2n1-c1cc(N)nc(Nc2ccc(OC(F)F)cc2)n1 [Cpd 60, N^2-[4-(difluoromethoxy)phenyl]-6-(4,6-difluoro-2-methyl-1H-benzimidazol-1-yl)pyrimidine-2,4-diamine]
10 to 100 nM	Nc1cc(-n2c(C3CC3)nc3ccccc32)nc(Nc2ccc(C(F)(F)F)cc2)n1 [Cpd 61, 6-(2-cyclopropyl-1H-benzimidazol-1-yl)-N^2-[4-(trifluoromethyl)phenyl]pyrimidine-2,4-diamine]
100 to 3000 nM	Cc1nc2ncccc2n1-c1nc(Nc2ccc(C(F)(F)F)cc2)nc(N)c1F [Cpd 62, 5-fluoro-6-(2-methyl-1H-imidazo[4,5-b]pyridin-1-yl)-N^2-[4-(trifluoromethyl)phenyl]pyrimidine-2,4-diamine]
10 to 100 nM	Nc1cc(-n2c(C3CC3)nc3cc(F)c(F)cc32)nc(Nc2ccc(C(F)(F)F)cc2)n1 [Cpd 64, 6-(2-cyclopropyl-5,6-difluoro-1H-benzimidazol-1-yl)-N^2-[4-(trifluoromethyl)phenyl]pyrimidine-2,4-diamine]
